We go through 41 molecules from ChEMBL document CHEMBL4483862, “Open-source discovery of chemical leads for next-generation chemoprotective antimalarials” (2018).

A word on the IC50: it is the midpoint of a concentration-inhibition curve. The term IC90 denotes the concentration at which the effect reaches the 90% level.

The subject of this experiment is Plasmodium berghei. Description: Luciferase/luciferin-expressing antifolate-resistant parasites were used to infect a culture of HepG2 cells that were pre-incubated with compounds. Infected hepatocytes emit light due to the luciferase reaction. Assay results are presented as the percent inhibition of light emission compared to control. […]. In kind it is functional. To be noted: sporozoite; for IC90: read-out: LUCIFERASE INFECTION ASSAY - IC90.

Where [1] appears, read: read-out: LUCIFERASE INFECTION ASSAY - IC50.

Turning to `Cc1cc(C(=O)N(C(=O)NC2CCCCC2)C2CCCCC2)c(C)n1-c1ccccc1`, the IC90 came to 8.67 µM. Also, the IC50 under setting [1] was determined as 1.12 µM.

For `CCC1CCCCN1CC(=O)Nc1cc(C)nn1-c1nc(C)cc(C)n1` (configuration not stated), the concentration for an effect of 90% (IC90) was > 10 µM. Under “HEPG2TOX_HILL_SLOPE 4.29, HEPG2TOX_R_SQUARED 0.929, read-out: LUCIFERASE INFECTION ASSAY - IC50”, the half-inhibitory concentration (IC50) was > 10 µM.

Regarding `CCCCn1nnnc1CSc1nnc(-c2ccccc2F)n1Cc1ccccc1`, the 90% effect concentration (IC90) is > 10 µM. Moreover, the IC50 under setting [1] is > 10 µM.

Turning to `CCCCCC(/C=N/NC(=O)c1ccccc1O)=C\c1ccccc1`, the IC90 is > 10 µM. Further, the IC50 under setting [1] was > 10 µM.

In the case of `COc1ccc(-c2nn(-c3ccccc3)cc2CN(Cc2ccccc2)C(=O)c2ccco2)cc1`, the IC90 was > 10 µM. Further, the IC50 under setting [1] is > 10 µM.

With `N#CC(/N=C\c1ccc(Cl)cc1)=C(\C#N)NC(=O)Nc1ccc(OC(F)(F)F)cc1`, the concentration for an effect of 90% (IC90) worked out at 2.75 µM. For the same molecule, for the setting “HEPG2TOX_HILL_SLOPE 2.54, HEPG2TOX_R_SQUARED 0.983, PBLUC_HILL_SLOPE 13.2, PBLUC_R_SQUARED 0.605, read-out: LUCIFERASE INFECTION ASSAY - IC50”, the IC50 worked out at 2.33 µM.

Turning to `Nc1ccc(-c2cn3c(-c4cccc(OC(F)(F)F)c4)cnc3cn2)cn1`, the concentration for an effect of 90% (IC90) is 4.23 µM. Moreover, the IC50 (PBLUC_HILL_SLOPE 9.99, PBLUC_R_SQUARED 0.381, read-out: LUCIFERASE INFECTION ASSAY - IC50) was determined as 3.39 µM.

As for `O=C(Nc1cccc(Cl)c1)c1csc(C(O)C2CCCCC2)n1` (configuration not stated), the IC90 was > 10 µM. Besides, under setting [1], the concentration for half-maximal inhibition (IC50) was > 10 µM.

Consider `CCOC(=O)c1c(S(=O)(=O)N2CCN(Cc3ccccc3)CC2)c(-c2ccccc2)n(-c2ccccc2)c1C`, for which the IC90 was > 6.07 µM. Besides, the half-inhibitory concentration (IC50) (FFLUC_HILL_SLOPE 3.32, FFLUC_R_SQUARED 0.581, read-out: LUCIFERASE INFECTION ASSAY - IC50) was > 6.07 µM.

With `CCN1CCC(N(C)c2ncnc3sc(-c4ccccc4)cc23)CC1`, the IC90 was > 10 µM. In addition, the half-inhibitory concentration (IC50) under setting [1] is > 10 µM.

With `c1ccc(-c2cc(N3CCCCC3)c3ccccc3n2)nc1`, the 90% effect concentration (IC90) was > 11.4 µM. Besides, the concentration for half-maximal inhibition (IC50) (PBLUC_HILL_SLOPE 9.83, PBLUC_R_SQUARED 0.0291, read-out: LUCIFERASE INFECTION ASSAY - IC50) came out at 10.3 µM.

With `O=[N+]([O-])c1ccc(N/N=C2\CCSc3ccc(Cl)cc32)cc1`, the IC90 is 9.78 µM. For the same molecule, the half-inhibitory concentration (IC50) (FFLUC_HILL_SLOPE 1.76, FFLUC_R_SQUARED 0.654, HEPG2TOX_HILL_SLOPE 8.57, HEPG2TOX_R_SQUARED 0.177, PBLUC_HILL_SLOPE 41.5, PBLUC_R_SQUARED 0.423, read-out: LUCIFERASE INFECTION ASSAY - IC50) came to 9.27 µM.

For the molecule `CC(C)OCCCNCC(O)COCc1ccccc1Cl` (configuration not stated), the concentration for an effect of 90% (IC90) was > 10 µM. In addition, the half-maximal inhibitory concentration (IC50) under setting [1] was > 10 µM.

For the molecule `CC(C)(C)c1cc(C(=O)Nc2nc(C(N)CCc3ccccc3)cs2)n(Cc2ccccc2)n1` (configuration not stated), the IC90 is > 6.97 µM. For the same molecule, the half-maximal inhibitory concentration (IC50) under setting [1] is > 6.97 µM.

On to `CC(=O)N1CCN(S(=O)(=O)c2ccc(C(=O)NCCCCCCC(C)C)cc2)CC1`, for which the IC90 was > 10 µM. Besides, under setting [1], the half-inhibitory concentration (IC50) is > 10 µM.

With `CCCc1cc(=O)nc(SCC(=O)NC(=O)c2ccc(C(C)(C)C)cc2)[nH]1`, the concentration for an effect of 90% (IC90) was > 10 µM. In addition, the half-maximal inhibitory concentration (IC50) under setting [1] is > 10 µM.

Take `Cc1ccc(C)c(S(=O)(=O)N(CC(=O)N2CCN(C(=O)c3ccco3)CC2)c2cccc(C(F)(F)F)c2)c1`: the concentration for an effect of 90% (IC90) is 8.16 µM. Also, where the note is “PBLUC_HILL_SLOPE 4.06, PBLUC_R_SQUARED 0.673, read-out: LUCIFERASE INFECTION ASSAY - IC50”, the IC50 was determined as 4.75 µM.

Consider `CCOC(=O)C1CCCN(C(=O)Cc2cccc3ccccc23)CC1` (configuration not stated), for which the 90% effect concentration (IC90) is > 9.72 µM. The IC50 under setting [1] is > 9.72 µM.

For `CCN(CC)CCSc1nc(-c2ccc(C)cc2)nc2c1COC(C)(C)C2`, the IC90 was > 8.56 µM. In addition, the IC50 (PBLUC_HILL_SLOPE 1.36, PBLUC_R_SQUARED 0.0849, read-out: LUCIFERASE INFECTION ASSAY - IC50) is > 8.56 µM.

As to `O=C(c1ccco1)N1CCc2nc(NCc3cccc(Cl)c3)ncc2C1`, the concentration for an effect of 90% (IC90) was 8.86 µM. Besides, for the setting “PBLUC_HILL_SLOPE 14.7, PBLUC_R_SQUARED 0.24, read-out: LUCIFERASE INFECTION ASSAY - IC50”, the 50% inhibitory concentration (IC50) is 7.63 µM.

As to `Cc1cc(C)c(C(=O)OCCC(NS(=O)(=O)c2ccc(Cl)cc2)c2ccccc2)c(C)c1` (configuration not stated), the IC90 was > 10 µM. In addition, under setting [1], the IC50 is > 10 µM.

`CN(C)C(CNC(=O)c1cc(C2CC2)nn1-c1ccccc1)Cc1ccccc1` (configuration not stated): the IC90 was > 10 µM. The half-maximal inhibitory concentration (IC50) under setting [1] is > 10 µM.

For the molecule `CSc1sc(C(=O)NC(=O)Nc2ccccc2Cl)c2c1-c1nocc1CC2`, the 90% effect concentration (IC90) was > 7.86 µM. Besides, the concentration for half-maximal inhibition (IC50) (HEPG2TOX_HILL_SLOPE 9.91, HEPG2TOX_R_SQUARED 0.105, read-out: LUCIFERASE INFECTION ASSAY - IC50) was > 7.86 µM.

Take `C[C@]12CC[C@H](O)C[C@H]1CCC1C2[C@H](O)C[C@]2(C)[C@@H](C3=CC(=O)OC3)CC[C@]12O` (some centres not stated): the IC90 is > 8.45 µM. Further, the concentration for half-maximal inhibition (IC50) (HEPG2TOX_HILL_SLOPE 3.83, HEPG2TOX_R_SQUARED 0.791, PBLUC_HILL_SLOPE 2.47, PBLUC_R_SQUARED 0.389, read-out: LUCIFERASE INFECTION ASSAY - IC50) is 3.98 µM.

For `Cc1nc(COc2ccc(C(=O)Nc3nc(-c4ccccn4)cs3)cc2)no1`, the IC90 amounted to 3.46 µM. Also, the IC50 (HEPG2TOX_HILL_SLOPE 10.4, HEPG2TOX_R_SQUARED 0.524, PBLUC_HILL_SLOPE 14, PBLUC_R_SQUARED 0.305, read-out: LUCIFERASE INFECTION ASSAY - IC50) stood at 2.96 µM.

For the molecule `CCNc1nnc(SCC(=O)N2CCNC2=O)s1`, the concentration for an effect of 90% (IC90) is > 10 µM. Under setting [1], the half-inhibitory concentration (IC50) is > 10 µM.

Regarding `Cc1cc(C(=O)CN2CCc3sccc3C2)c(C)n1Cc1cccs1`, the IC90 is > 10 µM. Besides, the half-maximal inhibitory concentration (IC50) under setting [1] came to 2.21 µM.

Take `COc1cccc(CNCc2nc(NCc3cccc(OC)c3)c3c(C)c(C)sc3n2)c1`: the IC90 is > 10 µM. The IC50 (HEPG2TOX_HILL_SLOPE 3.99, HEPG2TOX_R_SQUARED 0.699, PBLUC_HILL_SLOPE 15.2, PBLUC_R_SQUARED 0.535, read-out: LUCIFERASE INFECTION ASSAY - IC50) turned out to be 8.97 µM.

In the case of `Cc1ccc2c(CC(=O)Nc3sccc3C(N)=O)coc2c1`, the IC90 is > 10 µM. For the same molecule, the IC50 under setting [1] is > 10 µM.

Regarding `CCOC(=O)c1c(C)[nH]c(C(=O)Nc2ccnn2C2CCCC2)c1C`, the IC90 was determined as 6.13 µM. In addition, the IC50 under setting [1] was 6.86 µM.

As for `O=S(=O)(Nc1cc(Cl)c(Cl)cc1Cl)c1cc(C(F)(F)F)cc(C(F)(F)F)c1`, the IC90 came to 1.98 µM. For the setting “HEPG2TOX_HILL_SLOPE 2.48, HEPG2TOX_R_SQUARED 0.974, PBLUC_HILL_SLOPE 1.87, PBLUC_R_SQUARED 0.724, read-out: LUCIFERASE INFECTION ASSAY - IC50”, the IC50 was determined as 0.611 µM.

In the case of `O=C(CCCSc1nc2ccccc2s1)Nc1ccc(S(=O)(=O)NC2=NCCCCC2)cc1`, the IC90 is > 10 µM. Moreover, under setting [1], the IC50 was > 10 µM.

As to `COc1cc(C2(O)CS/C(=C(/C#N)C(=O)Nc3ccc(Cl)cc3)N2c2ccccc2)cc(OC)c1OC` (configuration not stated), the IC90 is > 10 µM. The half-inhibitory concentration (IC50) (HEPG2TOX_HILL_SLOPE 8.02, HEPG2TOX_R_SQUARED 0.929, PBLUC_HILL_SLOPE 8.63, PBLUC_R_SQUARED 0.488, read-out: LUCIFERASE INFECTION ASSAY - IC50) was found to be 8.71 µM.

With `Cc1cc(C(=O)CSc2nnc(Cc3cccc4ccccc34)n2C2CCCCC2)c(C)n1CC(F)(F)F`, the IC90 was > 10 µM. Also, the concentration for half-maximal inhibition (IC50) (FFLUC_HILL_SLOPE 15.7, FFLUC_R_SQUARED 0.514, PBLUC_HILL_SLOPE 7.31, PBLUC_R_SQUARED 0.494, read-out: LUCIFERASE INFECTION ASSAY - IC50) stood at 8.44 µM.

Take `c1ccc(OCc2nc3ccccc3n2-c2cc(-c3ccccc3)n[nH]2)cc1`: the IC90 is > 10 µM. Besides, the IC50 (PBLUC_HILL_SLOPE 0.678, 16.2, PBLUC_R_SQUARED 0.350, 0.0461, read-out: LUCIFERASE INFECTION ASSAY - IC50) was 9.43 µM.

In the case of `CCOC(=O)C1=C(C)N(S(=O)(=O)c2ccc(C)cc2)C(SC)=NC1c1ccccc1` (configuration not stated), the IC90 was > 7.42 µM. Further, under setting [1], the IC50 was > 7.42 µM.

As for `C=CCn1c(SCc2cn3c(C)cccc3n2)nc2sc(C)c(C)c2c1=O`, the concentration for an effect of 90% (IC90) is > 10 µM. Also, where the note is “FFLUC_HILL_SLOPE 10.3, FFLUC_R_SQUARED 0.131, HEPG2TOX_HILL_SLOPE 7.8, HEPG2TOX_R_SQUARED 0.483, read-out: LUCIFERASE INFECTION ASSAY - IC50”, the IC50 was > 10 µM.

On to `COc1ccccc1-n1c(C)c(C)c2c1ncn1nc(-c3ccncc3)nc21`, for which the IC90 was > 8.91 µM. The IC50 (PBLUC_HILL_SLOPE 2.29, PBLUC_R_SQUARED 0.762, read-out: LUCIFERASE INFECTION ASSAY - IC50) was > 8.91 µM.

As for `Cc1onc(-c2c(Cl)cccc2Cl)c1NC(=O)Nc1ccc(Oc2ccc(C(C)(C)C)cc2)nc1`, the IC90 was > 6.45 µM. For the same molecule, where the note is “FFLUC_HILL_SLOPE 11.2, FFLUC_R_SQUARED 0.206, PBLUC_HILL_SLOPE 0.638, PBLUC_R_SQUARED 0.443, read-out: LUCIFERASE INFECTION ASSAY - IC50”, the IC50 came to 2.71 µM.

Consider `CSc1ccc(/C=N/OCC(=O)NCCc2ccc(Cl)cc2Cl)cc1`, for which the concentration for an effect of 90% (IC90) was > 10 µM. In addition, the half-inhibitory concentration (IC50) under setting [1] was > 10 µM.

Consider `Cc1ccc(C(=O)c2c(NC(=O)CSc3nc4ccccc4n3CC(C)C)sc3c2CCCC3)cc1`, for which the 90% effect concentration (IC90) was > 10 µM. Besides, for the setting “FFLUC_HILL_SLOPE 15.8, FFLUC_R_SQUARED 0.569, HEPG2TOX_HILL_SLOPE 0.459, HEPG2TOX_R_SQUARED 0.518, PBLUC_HILL_SLOPE 11.3, PBLUC_R_SQUARED 0.271, read-out: LUCIFERASE INFECTION ASSAY - IC50”, the IC50 was > 10 µM.
